For one series, the system named is H292 cells. Briefly: Cytotoxicity, MTT assay, H292. The series is classed as cell-based, human. The note with it: Homo sapiens, NCI-H292, H292, 24 h at 37°C. Background: Tetrazolium assays rely on reduction of a dye to a coloured formazan, in cell work by metabolically active cells.
The test system of a further series is 16HBE cells. Briefly: Cytotoxicity, MTT assay, 16HBE. The series is classed as cell-based, human. The note with it: Homo sapiens, 24 h at 37°C.
Another series has as its system A549 cells. Briefly: Cytotoxicity, MTT assay, A549. The series is classed as cell-based, human. The note with it: Homo sapiens, A549, 24 h at 37°C.
Series [1] is described as follows: Particle size and zeta potential of lipoplexes by DLS. The series is classed as physicochemical. The note with it: lipoplexes with pCMV-Gluc, 25 °C, 5 % glucose, N/P 3, 1 molar equivalent of DOPE. From the text: The capacity of the pro-APLs to interact electrostatically with nucleic acids and form lipoplexes was checked by standard agarose gel electrophoresis. […] The size (hydrodynamic diameter) and charge (zeta potential, ζ) of the lipoplexes prepared at an N/P ratio of 3 with one molar equivalent of dioleoyl-sn-glycero-3-phosphatidylethanolamine (DOPE), a lipid with fusogenic properties (Hui et al., [1996]; Zuhorn et al., [2005]), were investigated by DLS (Supplementary Table 1).
as measured by DLS. Lipoplexes were prepared at 25 °C, in 5 % glucose, at a N/P ratio of 3 and with
1 molar equivalent of DOPE.
(Gaillard et al., 2019). Data are the mean of three independent measurements (± SD).

In the next series the test system is sheep RBC. Briefly: Hemolytic activity, red blood cell leakage assay. The note with it: 37°C.

In general, IC50 refers to the midpoint of a concentration-inhibition curve.

Method for sheep RBC: To evaluate this hypothesis, the hemolytic activity of the APLs and pro-APLs was measured. Sheep RBC were incubated for 1 h with escalating doses of aqueous dispersion of the compounds at 37°C. At the end of the incubation period, hemoglobin leakage was determined spectrophotometrically.
Thus, in order to better characterize the hemolytic effect of the pro-APLs, the incubation period has been extended and release of hemoglobin was measured after 24 h.
Red blood cell (RBC) leakage assay was carried out according to a previously described procedure
(Evans et al, 2013). RBC were prepared from defibrinated sheep blood. Briefly, blood sample (5 mL) was centrifuged at 500 x g for 5 min. After removal of the yellow upper layer, an equal volume of

In the case of `CCCCCCCCCCCCCCCCCCOP(=O)(OCOC(=O)CCCCCCCCCCC)OC1CC[N+](C)(C)CC1.[Cl-]` (stereo not drawn) [PE12, 4-((((Dodecanoyloxy)methoxy)(octadecyloxy)phosphoryl)oxy)-1,1-dimethylpiperidin-1-ium chloride], the IC50 is 168 ± 7 µM with H292 cells, 231 ± 70 µM in the series with 16HBE cells and 139 ± 4 µM in the series on A549 cells. For the same compound, the “Particle size of lipoplexes” value in series [1] came to 330 ± 76 nm. Further, the results for the “HA200 (hemolytic activity at 200 μM)” value with sheep RBC (1 h) and in the series on sheep RBC (24 h) were 7.1 ± 0.9% and 20.6 ± 5.9%, respectively.

These data come from article PMC7566913, “Dual Gene Delivery Reagents From Antiproliferative Alkylphospholipids for Combined Antitumor Therapy” (Frontiers in Chemistry, 2020).
